Legend:
[1] = tested on: neuromuscular transmission blocked with pancuronium bromide (rat phrenic nerve-hemidiaphragm); assay: Rat hemidiaphragm: antagonism of pancuronium blockade in vitro; set-up: species or system male Wistar rats; conditions: for EC50: 90% block by pancuronium bromide about 8×10^-6 M, 37° C., cumulative addition, read-out: EC50 (concentration that produces a 50% antagonism)
Procedure: Left hemidiaphragms with their phrenic nerves were removed from male Wistar rats weighing 280-320 g. and were mounted in an organ bath, containing Krebs solution, maintained at 37° C. and gassed with oxygen containing 5% CO2. The nerve was stimulated at a frequency of 0.1 Hz via electrodes with rectangular pulses of 0.3 ms duration and of a strength greater than that required to reproduce maximal twitch.

[2] = tested on: neuromuscular block by pancuronium bromide (sciatic nerve-anterior tibialis); assay: Rat sciatic nerve-anterior tibialis preparation: antagonism of neuromuscular block in vivo; set-up: species or system Rats; conditions: for ED50: Rattus norvegicus, iv, 10 min, read-out: ED50 (dose of drug producing a 50% antagonism), constant pancuronium infusion, 90-95% depression of twitch tension, cumulative dosing, 10 min interval
Procedure: This preparation is used to test the antagonistic action of aminopyridines against neuromuscular blocking agents in vivo. (Miller, Denissen, van der Pol, Agoston, Booy and Crul, J. Pharm. Pharmacol. 30, 699 (1978)).
Rats were administered a constant infusion of pancuronium bromide and when a constant block was achieved, one of the aminopyridines was administered. The ED50 's (dose of drug producing a 50% antagonism) were determined.
Rats (280-320 g) were anaesthetized with pentobarbital. Both jugular veins were cannulated for administration of drugs. A caratoid artery was cannulated for measurement and recording of arterial blood pressure. The trachea was intubated and ventilation controlled by means of a Braun air pump. The tendon of the left tibialist was freed, sectioned and connected to a force displacement transducer. The sciatic nerve was stimulated by supramaximal 0.1 Hz stimuli of 0.2 msec duration through a bipolar electrode. Twitch tension was recorded on a polygraph. The temperature of the rat was maintained at 37° C. with heating lamps. Pancuronium bromide was administered intravenously by continuous infusion until 90-95% depression of twitch tension was obtained. This infusion speed was maintained during the whole experiment. When the block was steady for at least 15 min one of the drugs was given cumulatively with 10 min interval.

mice [3] = conditions: i.p., Vohra et al., J. Med. Chem. 8, 296 (1965); cited from earlier work
[4] = 4-AP compared with 3,4-DAP; cited from earlier work
central nervous system = conditions: in vivo; cited from earlier work
mice [5] = assay: Acute toxicity (LD50), intraperitoneal, mice; type: in vivo; conditions: from LD50 values
Procedure: Moreover, the LD50 values for intraperotoneal 4-AP and 3,4-DAP in mice are 10 mg./kg. and 20 mg./kg., respectively (Vohra, et al. J. Med. Chem 8, 296-304 (1965)). The LD50 dosage corresponds to a lethal dose in 50% of the animals treated. Thus, although not as toxic as 4-AP, 3,4-DAP suffers from the similar disadvantage of high toxicity at dosage levels near those that would be used in therapy.

[6] = in vitro; vs 4-AP; cited from earlier work
guinea-pig ileum = assay: Ileum of the guinea pig: activity on smooth muscle; conditions: for pD2 (negative logarithm of the dose required to produce 50% of the maximum response): compared to maximal contraction by 2×10^-7 M carbochol, 37° C.
Procedure: This preparation tests the pharmacological activity on smooth muscle (Moritoki, Takei, Makomoto and Ishida, Arch. Int. Pharmacodyn. Ther. 232, 28 (1978).
The […] of the ileum was measured. This is compared to the maximal contraction caused by carbochol. From dose response curves the following pD2 values were determined (the pD2 value is the negative logarithm of the dose required to produce 50% of the maximum response).
Segments of guinea-pig ileum of 3 to 4 cm. length from 10 cm above the ileocaecal junction were used. The oral end of each segment was fixed to a hook and the distal end was connected to an isotonic transducer with a 1 g counterweight. The preparation was then immersed to an organ bath (25 ml) at 37° C. containing Krebs solution and bubbled with oxygen containing 5% CO2. After an equilibration time of about 1 hour, 2×10^-7 M carbochol was added to the bath for maximal contraction. After wash out (2×) the drugs were added cumulatively to the bath.

rat heart = assay: Isolated heart of the rat: positive inotropic action; set-up: species or system male Wistar rats; conditions: for changes in frequency or E.C.G.: same perfusion as L.V.P.
Procedure: This preparation evaluates the positive inotropic action of a drug (Koomen, van Gilst, Zimmerman and Noordwijk, Arch. Int. Pharmacodyn. Ther. 255, 212 (1982)).
Solutions of the aminopyridines were added to the perfusion solution of the rat heart. The left ventricular pressure (L.V.P.) was recorded in order to evalute the positive inotropic action. Frequency and E.C.G. were also monitored. Male Wistar rats (270-300 g) were anaesthetized with diethyl ether. After heparinization the hearts were quickly removed. Subsequently the heart was perfused according to the method of Langendorff. The perfusion fluid contained: NaCl 128 mM; KCl 4.7 mM; CaCl2 1.35 mM; MgCl2 1.05 mM; NaHPO4 0.42 mM; NaHCO3 20.2 mM; glucose 11.1 mM. The pH of the perfusion fluid after aeration with 95% O2 --5% CO2 was 7.35±0.05 (37° C.). L.V.P. was measured by means of a catheter inserted in the left ventricule and connected to a pressure transducer. A biopolar E.C.G. was obtained by means of two silver electrodes: one attached to the metal inflow cannula and the other to the ventricular apex. Coronary flow (volume of perfusion fluid per time unit) was measured by a microprocessor, which controlled the perfusion pressure by adjusting the peristaltic perfusion pump.

[7] = tested on: ketamine-xylazine narcosis; assay: Antagonism of ketamine-xylazine narcosis (central effects); type: in vivo, Rats
Procedure: This is a method of testing the central effects of the aminopyridines.
Rats were anaesthetized with xylazine (0.05 ml of a 2% soln, s.c.) and ketamine (0.1 ml of a soln, i.p.). After 10 min. the aminopyridines (1 mg./kg) were administered, i.v. The time required for "full recovery" (i.e. turning over and crawling) was measured. Groups of 10 rats were used for each treatment.

[8] = tested on: neuromuscular blocking drugs; conditions: with neostigmine and pyridostigmine; cited from earlier work
[9] = tested on: potassium channel in axonal membranes; conditions: cited from earlier work

SMILES: Nc1ccncc1N [3,4-Diaminopyridine, 3,4-diaminopyridine]
- EC50 [1]: 10 µM
- ED50 [2]: 0.25 mg/kg
- LD50 (mice [3]): 20 mg/kg
- action in vivo [4]: almost the same
- convulsions, central adverse effects (central nervous system): tendency to cause convulsions
- toxicity relative to 2,4-DAP (mice [5]): an order of magnitude more toxic than the compound of the present invention
- peripheral and central action relative to 4-AP [6]: stronger peripheral action and less central action than 4-AP in vitro

SMILES: Nc1ccnc(N)c1 [2,4-Diaminopyridine, 2,4-diaminopyridine]
- EC50 [1]: 15 µM
- potency relative to 3,4-diaminopyridine ([1]; vs 3,4-diaminopyridine): about the same potency as 3,4-diaminopyridine
- potency relative to 4-aminopyridine ([1]; vs 4-aminopyridine): about 3.5 times more potent
- ED50 [2]: 0.14 mg/kg
- potency relative to 3,4-diaminopyridine ([2]; vs 3,4-diaminopyridine): about twice as potent as 3,4-diaminopyridine
- potency relative to 4-aminopyridine ([2]; vs 4-aminopyridine): about 3 times more potent
- pD2 (negative logarithm of the dose required to produce 50% of the maximum response) (guinea-pig ileum): 4.52
- potency relative to 4-aminopyridine (guinea-pig ileum; vs 4-aminopyridine): slightly more potent than 4-aminopyridine
- increase of left ventricular pressure (L.V.P.) (rat heart; 5×10^-6 mol/l to 10^-4 mol/l): up to 50%
- changes in frequency or E.C.G. (rat heart): No changes in frequency or E.C.G. were noted
- effectiveness relative to 4-aminopyridine (rat heart; vs 4-aminopyridine): significantly more effective than 4-aminopyridine
- convulsions, central adverse effects (central nervous system): has not been shown to cause convulsions
- recovery compared with saline controls ([7]; 1 mg./kg, vs saline controls): did not differ significantly from controls receiving saline
- central actions relative to 3,4-diaminopyridine ([7]; vs 3,4-diaminopyridine): somewhat weaker than those of 3,4-diaminopyridine
- central actions relative to 4-aminopyridine ([7]; vs 4-aminopyridine): much weaker than those of 4-aminopyridine

SMILES: Nc1ccncc1 [4-Aminopyridine, 4-aminopyridine]
- EC50 [1]: 55 µM
- ED50 [2]: 0.45 mg/kg
- pD2 (negative logarithm of the dose required to produce 50% of the maximum response) (guinea-pig ileum): 4.30
- increase of left ventricular pressure (L.V.P.) (rat heart; 2×10^-5 to 1×10^-4 mol/l): up to 40%
- changes in frequency or E.C.G. (rat heart): No changes in frequency or E.C.G. were noted
- LD50 (mice [3]): 10 mg/kg
- action in vivo [4]: almost the same
- potentiation of anticholinesterase drugs [8]: potentiates anticholinesterase drugs
- convulsions, central adverse effects (central nervous system): hypertension and convulsions at dosage levels only slightly exceeding the clinical dosage
- potassium channel blocking action [9]: potassium channel blocking action in axonal membranes
- toxicity relative to 2,4-DAP (mice [5]): an order of magnitude more toxic than the compound of the present invention
